Test results: patent publication US5156955A, “Nucleoside oxidase and assay method utilizing same” (priority 1988, dated 1992)
Read-outs that look alike come from different tables or passages of the source.

Columns and labels:
nucleoside oxidase YT-1 [1] = assay: Enzymatic activity test I: oxidation reaction products and stoichiometry; format: biochemical, Pseudomonas maltophilia LB-86
Experimental: During a reaction period of 0 to 800 minutes, the reaction muxture was partly collected at suitable time intervals and analyzed by high performance liquid chromatography (HPLC) with a column of Fine SIL C18 (product of Japan Spectroscopic Co., Ltd.) using as a solvent 50 mM phosphate buffer (pH 3.0)/methanol=95/5 at a flow rate of 1.5 ml/min. Absorption was detected at 260 nm.
The amount of oxygen consumption was determined by an oxygen electrode, the amount of P-2 produced from the peak area of HPLC, and the amount of hydrogen peroxide by the phenol-4-aminoantipyrine peroxidase method and the ferrithiocyanide method (Ronald Thurman et al., Eur. J. Biochem., 25, 420-430 (1972)).

nucleoside oxidase YT-1 [2] = assay: Km value; format: biochemical, Pseudomonas maltophilia LB-86; details: read-out: apparent Km value
Experimental: (§1) The consumption of 1 μM of oxygen per minute is taken as 1 unit (U).

nucleoside oxidase YT-1 [3] = assay: Substrate specificity test (nucleoside oxidase activity, oxygen consumption); format: biochemical, Pseudomonas maltophilia LB-86
Experimental: as §1

nucleoside oxidase YT-1 [4] = assay: Specificity test on laccase substrate (laccase-like activity in presence of inosine); format: biochemical, Pseudomonas maltophilia LB-86; details: 1 mM laccase substrate, 7 mM inosine, one unit enzyme, 5 minutes
Experimental: The present enzyme was tested for the substrate specificity of its laccase-like activity in the presence of 7 mM inosine in the following manner. One unit of the present enzyme was added to a specimen containing 7 mM of inosine and 1 mM of the laccase substrate shown in Table 5, and the mixture was allowed to stand for 5 minutes. The absorption spectrum of the specimen was obtained before and after the addition of the enzyme.

nucleoside oxidase YT-1 [5] = details: for Amount of oxygen consumption / Amount of p-quinone formed: 0.06 μM inosine
[6] = 0.02 μM 1,4-hydroquinone, 1 U enzyme, pH 7.0
[7] = 0.06 μM 1,4-hydroquinone, 1 U enzyme, pH 7.0
[8] = 0.60 μM 1,4-hydroquinone, 1 U enzyme, pH 7.0

Row | Structure (SMILES) | hydrogen peroxide formed (nucleoside oxidase YT-1 [1]; 50 nanomoles of inosine as substrate) | oxygen consumption (nucleoside oxidase YT-1 [1]; 50 nanomoles of inosine, one U enzyme, 1 ml 100 mM phosphate buffer) [nmol] | P-2 produced (nucleoside oxidase YT-1 [1]; from 50 nanomoles of inosine, one U enzyme) [nmol] | Km (nucleoside oxidase YT-1 [2]) [µM] | Substrate specificity (enzyme active / not active on substance) (nucleoside oxidase YT-1 [3]; statement in words) | Relative activity (nucleoside oxidase YT-1 [3]; substrate 10 mM, relative to activity on inosine taken as 100) [%] | Change in absorption spectrum due to reaction (nucleoside oxidase YT-1 [4]) | Amount of oxygen consumption (nucleoside oxidase YT-1 [5]; [6]) [µM] | Amount of p-quinone formed (nucleoside oxidase YT-1 [5]; [6]) [µM] | Amount of oxygen consumption (nucleoside oxidase YT-1 [5]; [7]) [µM] | Amount of p-quinone formed (nucleoside oxidase YT-1 [5]; [7]) [µM] | oxygen used for oxidizing 1,4-hydroquinone (nucleoside oxidase YT-1 [5]; 0.115 μM minus 0.06 μM used for inosine, 0.12 μM 1,4-hydroquinone) [µM] | Amount of p-quinone formed (nucleoside oxidase YT-1 [5]; 0.12 μM 1,4-hydroquinone, 1 U enzyme, pH 7.0) [µM] | Amount of oxygen consumption (nucleoside oxidase YT-1 [5]; 0.12 μM 1,4-hydroquinone, 1 U enzyme, pH 7.0 (Table 3)) [µM] | Amount of oxygen consumption (nucleoside oxidase YT-1 [5]; 0.12 μM 1,4-hydroquinone, room temperature, 10 minutes (stoichiometry test)) [µM] | Amount of oxygen consumption (nucleoside oxidase YT-1 [5]; [8]) [µM] | Amount of p-quinone formed (nucleoside oxidase YT-1 [5]; [8]) [µM] | laccase reaction without nucleoside (nucleoside oxidase YT-1 [5]; enzyme mixed with laccase substrate, no nucleoside present)
1 | OC[C@H]1O[C@@H](n2cnc3c(O)ncnc32)[C@H](O)[C@@H]1O [Inosine] | No hydrogen peroxide was detected | 51 | 47 | 44 | Active | 100 |  |  |  |  |  |  |  |  |  |  |  | 
2 | Oc1ccc(O)cc1 [1,4-Hydroquinone] |  |  |  |  |  |  | New peak at 243 nm | 0.069 | 0.019 | 0.089 | 0.060 | 0.055 | 0.115 | 0.112 | 0.115 | 0.115 | 0.119 | no reaction occurs
